In the supplement of paper PMC7017272:
± gives the standard deviation of the averaged measurements.

Experiments:
Conditions in all cases: treatment time: 3 days
[1] = system: UT-SCC-24A; experiment: relative IC50 (midpoint of the fitted curve; maximal inhibition may be below 50%); higher = less potent
Protocol: (§1)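 HNSCC cell lines (500 cells/well, 384-well) were cultured on plastic, on top of (2D) or embedded (3D) in Matrigel or human leiomyoma matrix Myogel (500 ug/mL; Myogel 3D mixed with rat collagen I). Cells were treated for 3 days with 5 ten-fold concentrations of each drug, and viability was read by CellTiter-Glo. Viability was normalised to DMSO (0% inhibition) and 100 uM benzethonium chloride (100% inhibition) controls and fitted with the FIMM DSRT pipeline to give IC50 (nM), maximal % inhibition and the drug sensitivity score (DSS). Suffixes _1/_2/_3 on drug names are replicates.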

[2] = system: UT-SCC-24A; experiment: drug sensitivity score (DSS); higher = more sensitive
Protocol: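 HNSCC cell lines (500 cells/well, 384-well) were cultured on plastic, on top of (2D) or embedded (3D) in Matrigel or human leiomyoma matrix Myogel (500 ug/mL; Myogel 3D mixed with rat collagen I). Cells were treated for 3 days with 5 ten-fold concentrations of each drug, and viability was read by CellTiter-Glo. Suffixes _1/_2/_3 on drug names are replicates.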

[3] = system: UT-SCC-42A; experiment: drug sensitivity score (DSS); higher = more sensitive; extreme values may be limits of the assay
Summary of the method: (§2)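 Three growth formats were used for HPV-negative HNSCC cell lines in 384-well plates at 500 cells/well: bare plastic, wells coated with Matrigel or Myogel (500 µg/mL), and embedding in Matrigel or Myogel plus rat collagen I. Compounds were added at five 10-fold concentrations, and after 3 days CellTiter-Glo 2.0 luminescence was recorded and normalised to vehicle (0.1% DMSO) and cell-killing control wells. IC50, maximal inhibition and drug sensitivity score came from percent-inhibition dose–response fitting in the FIMM pipeline.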

[4] = system: UT-SCC-14; experiment: as above
Summary of the method: as §2

[5] = system: UT-SCC-106A; experiment: as above
Summary of the method: as §2

[6] = system: UT-SCC-42B; experiment: as above
Summary of the method: as §2

[7] = system: UT-SCC-81; experiment: maximal % inhibition of viability relative to DMSO; higher = stronger effect
Protocol: as §1, with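 “DMSO” for “DMSO (0% inhibition)”, “and” for “and 100 uM”, “chloride” for “chloride (100% inhibition)”, “DSS.” for “the drug sensitivity score (DSS).”, “_1/_2/_3” for “_1/_2/_3 on drug names”, “replicates. Only inhibition-mode (IC50) fits are kept.” for “replicates.”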

[8] = system: UT-SCC-24B; experiment: as above
Protocol: as §1, with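 “DMSO” for “DMSO (0% inhibition)”, “and” for “and 100 uM”, “chloride” for “chloride (100% inhibition)”, “DSS.” for “the drug sensitivity score (DSS).”, “_1/_2/_3” for “_1/_2/_3 on drug names”, “replicates. Only inhibition-mode (IC50) fits are kept.” for “replicates.”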

[9] = system: UT-SCC-28; experiment: as above
Protocol: as §1, with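 “DMSO” for “DMSO (0% inhibition)”, “and” for “and 100 uM”, “chloride” for “chloride (100% inhibition)”, “DSS.” for “the drug sensitivity score (DSS).”, “_1/_2/_3” for “_1/_2/_3 on drug names”, “replicates. Only inhibition-mode (IC50) fits are kept.” for “replicates.”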

[10] = system: UT-SCC-8; experiment: as above
Protocol: as §1, with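 “DMSO” for “DMSO (0% inhibition)”, “and” for “and 100 uM”, “chloride” for “chloride (100% inhibition)”, “DSS.” for “the drug sensitivity score (DSS).”, “_1/_2/_3” for “_1/_2/_3 on drug names”, “replicates. Only inhibition-mode (IC50) fits are kept.” for “replicates.”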

[11] = system: UT-SCC-42A; experiment: as above
Protocol: as §1, with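 “DMSO” for “DMSO (0% inhibition)”, “and” for “and 100 uM”, “chloride” for “chloride (100% inhibition)”, “DSS.” for “the drug sensitivity score (DSS).”, “_1/_2/_3” for “_1/_2/_3 on drug names”, “replicates. Only inhibition-mode (IC50) fits are kept.” for “replicates.”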

[12] = system: UT-SCC-14; experiment: as above
Protocol: as §1, with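 “DMSO” for “DMSO (0% inhibition)”, “and” for “and 100 uM”, “chloride” for “chloride (100% inhibition)”, “DSS.” for “the drug sensitivity score (DSS).”, “_1/_2/_3” for “_1/_2/_3 on drug names”, “replicates. Only inhibition-mode (IC50) fits are kept.” for “replicates.”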

[13] = system: UT-SCC-44; experiment: as above
Protocol: as §1, with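 “DMSO” for “DMSO (0% inhibition)”, “and” for “and 100 uM”, “chloride” for “chloride (100% inhibition)”, “DSS.” for “the drug sensitivity score (DSS).”, “_1/_2/_3” for “_1/_2/_3 on drug names”, “replicates. Only inhibition-mode (IC50) fits are kept.” for “replicates.”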

[14] = system: UT-SCC-106A; experiment: as above
Protocol: as §1, with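 “DMSO” for “DMSO (0% inhibition)”, “and” for “and 100 uM”, “chloride” for “chloride (100% inhibition)”, “DSS.” for “the drug sensitivity score (DSS).”, “_1/_2/_3” for “_1/_2/_3 on drug names”, “replicates. Only inhibition-mode (IC50) fits are kept.” for “replicates.”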

[15] = system: UT-SCC-42B; experiment: as above
Protocol: as §1, with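 “DMSO” for “DMSO (0% inhibition)”, “and” for “and 100 uM”, “chloride” for “chloride (100% inhibition)”, “DSS.” for “the drug sensitivity score (DSS).”, “_1/_2/_3” for “_1/_2/_3 on drug names”, “replicates. Only inhibition-mode (IC50) fits are kept.” for “replicates.”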

[16] = system: UT-SCC-73; experiment: as above
Protocol: as §1, with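 “DMSO” for “DMSO (0% inhibition)”, “and” for “and 100 uM”, “chloride” for “chloride (100% inhibition)”, “DSS.” for “the drug sensitivity score (DSS).”, “_1/_2/_3” for “_1/_2/_3 on drug names”, “replicates. Only inhibition-mode (IC50) fits are kept.” for “replicates.”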

[17] = system: UT-SCC-40; experiment: as above
Protocol: as §1, with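 “DMSO” for “DMSO (0% inhibition)”, “and” for “and 100 uM”, “chloride” for “chloride (100% inhibition)”, “DSS.” for “the drug sensitivity score (DSS).”, “_1/_2/_3” for “_1/_2/_3 on drug names”, “replicates. Only inhibition-mode (IC50) fits are kept.” for “replicates.”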

[18] = culture condition: embedded in Myogel + collagen I
[19] = culture condition: on top of Myogel
[20] = culture condition: embedded in Matrigel
[21] = culture condition: on top of Matrigel
[22] = culture condition: plastic 2D (no matrix)

- relative IC50 [1, 18]: 1.86 nM
- relative IC50 [1, 19]: 2.01 nM
SMILES: CO[C@H]1C[C@@H]2CC[C@@H](C)[C@@](O)(O2)C(=O)C(=O)N2CCCC[C@H]2C(=O)O[C@H]([C@H](C)C[C@@H]2CC[C@@H](O)[C@H](OC)C2)CC(=O)[C@H](C)/C=C(\C)[C@@H](O)[C@@H](OC)C(=O)[C@H](C)C[C@H](C)/C=C/C=C/C=C/1C [Sirolimus]
- drug sensitivity score [2, 20]: 9 ± 4.9 DSS
- drug sensitivity score [2, 18]: 16.4 ± 1.2 DSS
- drug sensitivity score [2, 21]: 12.7 ± 3.7 DSS
- drug sensitivity score [2, 19]: 13.7 ± 1.2 DSS
- drug sensitivity score [2, 22]: 12.9 ± 2.5 DSS
- drug sensitivity score [3, 20]: 10.6 ± 4.6 DSS
- drug sensitivity score [3, 18]: 9.5 ± 0.92 DSS
- drug sensitivity score [3, 21]: 12.9 ± 1.6 DSS
- drug sensitivity score [3, 19]: 12.3 ± 1.6 DSS
- drug sensitivity score [3, 22]: 11.2 ± 0.82 DSS
- drug sensitivity score [4, 20]: 19.3 ± 2.1 DSS
- drug sensitivity score [4, 18]: 15.4 ± 2.7 DSS
- drug sensitivity score [4, 21]: 15.6 ± 3.3 DSS
- drug sensitivity score [4, 19]: 15.4 ± 3.1 DSS
- drug sensitivity score [4, 22]: 15.1 ± 3.8 DSS
- drug sensitivity score [5, 20]: 4.7 ± 4.3 DSS
- drug sensitivity score [5, 18]: 3.73 ± 3.3 DSS
- drug sensitivity score [5, 21]: 8.67 ± 3.8 DSS
- drug sensitivity score [5, 19]: 7.03 ± 3.8 DSS
- drug sensitivity score [5, 22]: 10 ± 3.3 DSS
- drug sensitivity score [6, 20]: 3.47 ± 6 DSS
- drug sensitivity score [6, 21]: 3.07 ± 5.3 DSS
- drug sensitivity score [6, 19]: 0 DSS
- drug sensitivity score [6, 22]: 3.8 ± 3.4 DSS
- maximal % inhibition of viability [7, 20]: 89.7 ± 3.3%
- maximal % inhibition of viability [7, 18]: 80 ± 4.9%
- maximal % inhibition of viability [7, 21]: 82.1 ± 1.4%
- maximal % inhibition of viability [7, 19]: 77.3 ± 1.9%
- maximal % inhibition of viability [7, 22]: 78.8 ± 3.2%
- maximal % inhibition of viability [8, 20]: 93.17 ± 0.71%
- maximal % inhibition of viability [8, 18]: 93.9 ± 1.8%
- maximal % inhibition of viability [8, 21]: 91.5 ± 0.2%
- maximal % inhibition of viability [8, 19]: 91.1 ± 2.1%
- maximal % inhibition of viability [8, 22]: 90.4 ± 1.4%
- maximal % inhibition of viability [9, 20]: 35 ± 13%
- maximal % inhibition of viability [9, 18]: 57.3 ± 1.4%
- maximal % inhibition of viability [9, 21]: 43.7 ± 4.2%
- maximal % inhibition of viability [9, 22]: 34.8 ± 4.6%
- maximal % inhibition of viability [10, 20]: 96.37 ± 0.95%
- maximal % inhibition of viability [10, 18]: 94.2 ± 1.6%
- maximal % inhibition of viability [10, 21]: 95.77 ± 0.31%
- maximal % inhibition of viability [10, 19]: 94.7 ± 0.35%
- maximal % inhibition of viability [10, 22]: 95.07 ± 0.45%
- maximal % inhibition of viability [11, 20]: 66.8 ± 8.8%
- maximal % inhibition of viability [11, 18]: 52.5 ± 2.1%
- maximal % inhibition of viability [11, 21]: 64.7 ± 1.1%
- maximal % inhibition of viability [11, 19]: 61.33 ± 0.42%
- maximal % inhibition of viability [11, 22]: 55.5 ± 0.36%
- maximal % inhibition of viability [12, 20]: 73.1 ± 6.3%
- maximal % inhibition of viability [12, 18]: 60.2 ± 7.8%
- maximal % inhibition of viability [12, 21]: 70.8 ± 8.7%
- maximal % inhibition of viability [12, 19]: 66.2 ± 9%
- maximal % inhibition of viability [12, 22]: 64.4 ± 6.4%
- maximal % inhibition of viability [13, 20]: 48.7 ± 9.5%
- maximal % inhibition of viability [13, 18]: 72.6 ± 1.9%
- maximal % inhibition of viability [13, 21]: 61 ± 2.4%
- maximal % inhibition of viability [13, 19]: 72.5 ± 1.7%
- maximal % inhibition of viability [13, 22]: 72.3 ± 3.1%
- maximal % inhibition of viability [14, 20]: 53.1 ± 13%
- maximal % inhibition of viability [14, 18]: 35.2 ± 3%
- maximal % inhibition of viability [14, 21]: 52.9 ± 3.1%
- maximal % inhibition of viability [14, 19]: 41.1 ± 1.3%
- maximal % inhibition of viability [14, 22]: 57.3 ± 2.8%
- maximal % inhibition of viability [15, 20]: 85 ± 3.7%
- maximal % inhibition of viability [15, 21]: 76.5 ± 1.4%
- maximal % inhibition of viability [15, 19]: 76.5 ± 1.6%
- maximal % inhibition of viability [15, 22]: 74.1 ± 2.6%
- maximal % inhibition of viability [16, 20]: 84.6 ± 1.5%
- maximal % inhibition of viability [16, 18]: 78.8 ± 4.7%
- maximal % inhibition of viability [16, 21]: 83.3 ± 2.9%
- maximal % inhibition of viability [16, 19]: 80.27 ± 0.76%
- maximal % inhibition of viability [16, 22]: 79.8 ± 1.5%
- maximal % inhibition of viability [17, 20]: 91.7 ± 5%
- maximal % inhibition of viability [17, 18]: 92 ± 2%
- maximal % inhibition of viability [17, 21]: 86.8 ± 0.91%
- maximal % inhibition of viability [17, 19]: 75.6 ± 0.97%
- maximal % inhibition of viability [17, 22]: 79.1 ± 2.9%
